# Data as given in US20220175637A1, “COMPOSITION COTAINING ULTRAVIOLET WAVELENGTH-CONVERTING SUBSTANCE AND HYDROPHOBIZED SILICA AND/OR HYDROPHOBIZED STARCH” (Shiseido Company, Ltd., priority 2019, published 2022).
# Tests used:
# Human dermal fibroblasts [1] = test: Cell activity (AlamarBlue) of cells irradiated with UV through a solution of the UV wavelength conversion substance; type: cell-based; settings: UV 0 to 100 mJ/cm^2, FIG. 3
# Experimental: The UV wavelength conversion substances (3) and (4) were dispersed in alcohol to prepare 5% and 10% dispersions.
# (§1) 1. Human dermal fibroblasts and human skin keratinocytes purchased from Kurabo Industries Ltd. were used. A cell suspension (1 mL) stored in liquid nitrogen was thawed in a water bath (37° C.) to an extent that small ice pellets remained, and then diluted with 9 mL of warm medium. 2. The diluted suspension was mixed gently and then transferred to a T75 flask and incubated overnight at 37° C. 3. The next day, the medium was replaced with 10 mL of fresh medium. 4. The medium was replaced periodically (once every 2 days for fibroblasts and once every 2 to 3 days for keratinocytes) and cell proliferation was continued. Meanwhile, the cells were observed using a microscope, and it was confirmed that the cells grew in the correct form. 5. After the cells reached about 80% confluence, the cells were passaged. The cells were passaged by washing the cells once with 10 mL of warm PBS, adding 5 mL of warm trypsin to a T75 flask, covering the bottom of the flask with a trypsin solution, followed by aspirating at room temperature for 1 minute. 6. The flask was allowed to stand in an oven at 37° C. for (maximum) 2 minutes for fibroblasts and (maximum) 7 minutes for keratinocytes. The cells were observed using a microscope and confirmed to be small and oval. 7. […]
# Human dermal fibroblasts [2] = test: Restoration of cell activity decreased by UV irradiation (AlamarBlue); type: cell-based; settings: FIG. 5
# Experimental: as §1, with “7. Thereafter, the side of the T75 flask was lightly tapped to release the cells.” for “7.”
substance,measurement,setting,value
C-phycocyanin,cell activity at UV irradiation (relative fluorescence intensity),Human dermal fibroblasts [1]; 0.4% C-phycocyanin solution,the decrease in cell activity was suppressed
same,cell activity at UV irradiation (relative fluorescence intensity),"Human dermal fibroblasts [1]; 2% C-phycocyanin solution, compared to no UV irradiation",the cell activity was even increased
same,"cell activity recovery effect, comparison of concentrations",Human dermal fibroblasts [2]; 0.4% versus 2% solution,equivalent at concentrations of 0.4% and 2%
same,cell activity of cells having activity temporarily reduced (relative fluorescence intensity),"Human dermal fibroblasts [2]; pre-irradiation 400 mJ/cm^2 without substance, then UV 0 to 200 mJ/cm^2 through 0.4% or 2% solution",cell activity was recovered
